Measurements as given in patent US20190256491A1, “Methods For Treatment Of 16P11.2 Microdeletion Syndrome” (Massachusetts Institute of Technology, priority 2012, published 2019).
“Also recorded” adds a separate entry of the source.

Legend:
[1] = tested on: mGluR-LTD at the Schaffer collateral-CA1 synapse of hippocampal slices; assay: DHPG-LTD, hippocampal slice electrophysiology; design: species or system mouse; conditions: CHX 60 μM, 40 min, DHPG 50 μM, 5 min
Protocol: (§1) Electrophysiological experiments were performed at the Schaffer collateral-CA1 synapse of hippocampal slices prepared from p28 to p35 male mice using experimental protocols as previously described ((Auerbach et al., 2011)). Dorsal hippocampal slices (400 μm thick) were used in all recordings. Input-output functions were determined by incrementally (10 μA to 100 μA) stimulating the Schaffer collaterals and recording the resulting fEPSP response. Paired-pulse facilitation was conducted by applying two stimulus pulses at varying inter-stimulus-intervals (ISI). Facilitation was measured by taking the ratio of the fEPSP slope in response to stimulus 2 to that of stimulus 1. […] For paired-pulse low frequency stimulation (PP-LFS) slices were incubated in ACSF containing APV (50 μM)±CHX for 30 min. mGluR5-LTD was then induced by application (20 min) of paired-pulse stimulation (50 ms ISI) at 1 Hz, and synaptic responses were recorded for an additional 60 min.
(§2) Group I mGluR mediated synaptic plasticity was assessed. mGluR-LTD can be induced either by chemical induction by pharmacological stimulation of mGluRs (DHPG-LTD) or electrical induction by applying a series of paired pulses at about 50 ms interval (PP-LFS-LTD). […]

[2] = tested on: mGluR5-LTD at the Schaffer collateral-CA1 synapse of hippocampal slices; assay: PP-LFS LTD, hippocampal slice electrophysiology; design: species or system mouse; conditions: ACSF with APV 50 μM ± CHX 30 min
Protocol: as §1, §2

[3] = tested on: chr7qF3 mutant mice (mouse model of human chr16p11.2 microdeletion) and WT mice; assay: Inhibitory avoidance extinction (IAE) test; type: in vivo
Protocol: Inhibitory avoidance extinction (IAE) tests were performed as previously described with modification ((Dolen et al., 2007)). Briefly, 4-6 weeks male mice were divided into four groups according to genotype and CTEP treatment: WT+vehicle, WT+CTEP, Mutant+vehicle, and Mutant+CTEP. CTEP or vehicle was administered by oral gavage every other day for 4 weeks. The last dose was given about 16-20 hours prior to the training session. IA tests were conducted in a two-chambered Perspex box consisting of a lighted side and a dark side separated by a trap door. On the training day, mice were habituated in the behavioral room for about 2 hours before training. During training, a mouse was placed into the lit side of the chamber and allowed to explore for about 30 seconds before the trap door was opened. The ensuing time spent by the animal in the light chamber before entering the dark chamber was recorded as latency. Immediately after fully entering the dark side of the camber, subjects were given about a 2 sec mild foot shock (about 0.4 mA) and allowed to spend an additional 60 sec before being returned to their home-cage. The acquisition and expression of fear memory was tested at about 6, about 24, and about 48 hours post training. The testing protocol used was the same as the training protocol. Latencies to enter the dark side of the chamber were recorded and used as measurement of IAE performance. Statistical significance was determined using two-way ANOVA and post hoc Student's t-tests.
Mice were evaluated in another hippocampus-associated behavioral paradigm: inhibitory avoidance (IA). IA is a multi-phase test used to assay memory formation and extinction. During the training session (0 hr), mice were placed in the light chamber of a two-chamber box. After a variable latency in the light side, they entered the dark side of the box where about a 2 sec foot-shock was delivered. Acquisition and extinction of the fear memory, as measured by the latency to re-enter the dark chamber from the lighted side, was tested 6 hr (acquisition) as well as about 24 hr and about 48 hr (extinction) after training. Experiments were conducted to determine: (1) if chr7qF3 mice had deficits similar to Fmrl KO mice in the IA test, and (2) if deficits were present, could the mGluR5 inhibitor CTEP treatment ameliorate them. Mice were divided into four groups: WT+vehicle, WT+CTEP, Mut+vehicle, and Mut+CTEP. CTEP was given by the same dosing regime previously used with Fmrl KO mice ((Michalon et al., 2012)).

[4] = tested on: pre-synaptic glutamate release, Schaffer collateral-CA1 synapse of hippocampal slices; assay: Paired-pulse facilitation at beginning and end of DHPG-LTD experiment; design: species or system mouse; conditions: both WT and mutant slices; independent of CHX treatment
Protocol: as §1
To test whether the difference in CHX sensitivity between WT and mutant slices was due to a different pre-synaptic response to either DHPG treatment or PP-LFS induction, paired pulse facilitation at the beginning and end of DHPG-LTD experiment (FIGS. 2C and 2D) was assessed. […]

## C[C@@H]1C[C@@H]([C@H](O)CC2CC(=O)NC(=O)C2)C(=O)[C@@H](C)C1 [CHX, Cycloheximide]
[1]; WT slices
  effect on DHPG-induced LTD: significantly blocked
[1]; chr7qF3 mutant slices
  effect on DHPG-induced LTD: no effect; also recorded: remains unaffected
[2]; WT slices
  effect on PP-LFS LTD: almost completely blocked
[2]; chr7qF3 mutant slices
  effect on PP-LFS LTD: no effect; also recorded: remains unaffected

## Cc1nc(C#Cc2ccnc(Cl)c2)c(C)n1-c1ccc(OC(F)(F)F)cc1 [CTEP, 2-chloro-4-((2,5-dimethyl-1-(4-(trifluoromethoxy)phenyl)-1H-imidazol-4-yl)ethynyl)pyridine]
[3]; Chr7qF3 mutant mice, 6, 24 and 48 hours post training, chronic oral gavage every other day for 4 weeks
  latency to re-enter the chamber: significantly lengthens
[3]; Mut+CTEP, similar to the two wildtype groups
  extinction of fear memory at 48 hr: significant extinction
[3]; Mut+CTEP, to a level comparable to WT+vehicle mice
  latency to re-enter the dark chamber at 6 hr (acquisition): dramatically lengthened
[3]; WT mice, WT+CTEP vs WT+vehicle
  effect on latency to re-enter the chamber: no effect
[3]; WT+CTEP
  extinction of fear memory at 48 hr: exhibited extinction
[3]; chr7qF3 mutant mice, chronic oral treatment
  cognitive impairment / fear memory deficits in IAE test: significantly ameliorates; also recorded: ameliorated

## N[C@H](C(=O)O)c1cc(O)cc(O)c1 [DHPG, S-3,5-dihydrozyphenylglycine]
[4]
  paired pulse facilitation after DHPG treatment: increased paired pulse facilitation
